Measured values: PMC12851007 (Angewandte Chemie (International Ed. in English), 2025)
Where a SMILES comes first, the peptide text is derived from it.

Test: CF dye efflux assay, EYPC vesicles
Assay type: biochemical
Details: 97 mM NaCl, pH 7.5, 25 °C, n = 1; for Y30µM, membrane activity, CF assay: 30 µM peptide, 25 µM EYPC⸧CF-LUVs (inside 50 mM CF) in 10 mM Hepes, fluorescence λexc 492/λem 517 nm, peptide at 60 s, TX-100 at 600 s, fractional activity
Text: Time-dep endent fluores cence intensit y traces, I (t), were subsequentl y normalized to fractional intensities, If(t), using equation (1). Therein, I 0 is the intensity just before addition of peptide and I ∞ is the constant intensit y after addition of the calibration cockt ail.
IIf (tt ) = II (tt )−II0II∞ − II0 (1)
The concentration-dependent fractional intensities just before the addition of the calibration cocktail, If, were then normalized to fractional membrane activities, Y, using equation (2).
Therein, If,0 is the fractional intensit y just before addition of the calibration cocktail in absence of peptide and I f,∞ is the constant fractional intensity after addition of the calibration cocktail.
YY = IIf − IIf,0IIf,∞ − IIf,0 (2)
The fractional membrane activities, Y, were subsequently plotted against the peptide concentration, c, and analysed using the Hill equation (3) to obtain the effective molar concentration, EC50, and the Hill coefficient, n. Y0 and Y ma x are the fractional membrane activities in absen ce o f p eptide and at max imal peptide concent rations. For peptides with too little activity to determine Y ma x ex perimentall y, Y max was fixed at 1.0 during fitting.
YY = YY0 + YYmax − YY0nn (3)
Vesicle preparation. 100 µ L of a solution of 25 mg/ml of POPC in chloroform or 200 µ L of a solution of 25 mg/ml of EYPC in chloroform was purged with a stream of nitrogen and dried overnight under high vacuum. The thin lipid film was reh ydrated with 1ml of reh yd ration buffer (= inside buffer, see Table S3 ) b y agitation at room temperature for 30 min and then subjected to 5 freeze- thaw cycles (freezing in liquid nitrogen and thawing at 40 °C).
Subsequently, the liposome suspension was extruded ≥ 15 times through a polycarbonate membrane (pore size 100 nm). Extravesicular components were then removed by size exclusion chromatography using a 1.5 × 12 cm polyprop ylene column (Bio- Rad, German y) with 1.0 g Sephad ex G-50 (medium) as a stationa r y ph ase and the resp ectiv e outside buffer for […]
Ta b l e S 3. Combinations of inside and outside buffer for CF -LUVs.
No. Lipid Inside buffer = rehydration buffer Outside buffer
(1) EYPC 10 mM Hepes, 50 mM CF, pH 7.5 10 mM Hepes, 97 mM NaCl, pH 7.5
(2) POPC 10 mM Hepes, 50 mM CF, pH 7.5 10 mM Hepes, 97 mM NaCl, pH 7.5
(3) POPC 10 mM Hepes, 50 mM CF, pH 7.5 10 mM Hepes, 175 mM glucose, pH 7.5 [a] [a] Glucose b uffers (183 mOsm/L at 25 °C) were used within one week after preparation.
Vesicle quality control. The size distribution of the liposomes was confirmed by DLS to be unimodal and avera ge ve sicles diameters wer e in the ran ge from 115 to 130 nm. The final lipid content in the liposome s uspension after prep ar ation and sep aration w as det ermined b y NMR. CF vesicles are comparabl y leak y and cont ain minor amounts of ex travesi cular CF after a f ew days. When the fluores cence chan ge after vesicl e lys is b y addition of 20 µ L 1.6% (wt/vol) TX-100 was less than a factor of four, the vesicle suspension was no longer used.
Assay protocol. An appropriate volume of the liposome stock solutions was diluted to 2 mL with outside buffer in a 10 ×10 mm quartz glass cuvette to afford a phospholipid concentration of 25 µM. […] Subsequentl y, the time-dependent change in fluorescence intensity (C F: λ exc = 492 nm, λ em = 517 nm) was recorded during addition of 20 µL peptide stock solution of var ying concentrations at 60 s and 20µ L of a calibration cocktail (1. 6% […]

[1] = 25 µM lipid, EYPC⊃CF-LUVs, 10 mM Hepes, fractional activity at 590 s, Hill fit, error = SD of fit

SMILES	EC50, CF assay, EYPC [1]	Y30µM, membrane activity, CF assay	EC50 [1] [µM]
CC[C@H](C)[C@H](NC(=O)[C@H](CCCCN)NC(=O)[C@@H](NC(=O)[C@@H](N)CCC(N)=O)[C@@H](C)CC)C(=O)N[C@@H](Cc1c[nH]c2ccccc12)C(=O)N[C@@H](Cc1ccccc1)C(=O)N[C@@H](CCC(N)=O)C(=O)N[C@@H](CC(N)=O)C(=O)N[C@@H](CCCNC(=N)N)C(=O)N[C@@H](CCCNC(=N)N)C(=O)N[C@@H](CCSC)C(=O)N[C@@H](CCCCN)C(=O)N[C@@H](Cc1c[nH]c2ccccc12)C(=O)N[C@@H](CCCCN)C(=O)N[C@@H](CCCCN)C(=O)O (H-QIKIWFQNRRMKWKK-OH)	too low to determine	0.14	–
CC(C)C[C@H](NC(=O)[C@H](CC(C)C)NC(=O)[C@H](CCCNC(=N)N)NC(=O)[C@@H](N)CC(C)C)C(=O)N[C@@H](CCCNC(=N)N)C(=O)N[C@@H](Cc1c[nH]c2ccccc12)C(N)=O [LRLLRW] (H-LRLLRW-NH2)	–	0.23	–
CC(C)[C@H](NC(=O)[C@H](CCCCN)NC(=O)[C@H](CCCNC(=N)N)NC(=O)[C@H](CCCCN)NC(=O)[C@H](CCCCN)NC(=O)[C@H](CCCCN)NC(=O)[C@@H]1CCCN1C(=O)[C@H](CCC(N)=O)NC(=O)[C@H](CO)NC(=O)[C@H](Cc1c[nH]c2ccccc12)NC(=O)[C@H](CC(=O)O)NC(=O)[C@@H](NC(=O)[C@H](Cc1c[nH]c2ccccc12)NC(=O)[C@H](Cc1c[nH]c2ccccc12)NC(=O)[C@@H](NC(=O)[C@H](CC(=O)O)NC(=O)[C@H](Cc1c[nH]c2ccccc12)NC(=O)[C@H](Cc1c[nH]c2ccccc12)NC(=O)[C@@H](NC(=O)[C@H](CC(=O)O)NC(=O)[C@@H](N)CCCCN)[C@@H](C)O)[C@@H](C)O)[C@@H](C)O)C(=O)O [Pep‐1] (H-KDTWWDTWWTDWSQPKKKRKV-OH)	–	0.46	35 ± 1
